Assay results taken from PubChem BioAssay AID743098 (Vanderbilt Specialized Chemistry Center, 2013).
Activity calls are given as the source filed them. The rule behind the calls is not given here.

Target: Muscarinic acetylcholine receptor M1 (Homo sapiens) (UniProt P11229)
Assay: ACh-evoked M1 calcium response modulation – cell-based, human M1, selectivity assay for M5 NAM discovery project (AID 743098)
Conditions: CHO-K1 hM1 calcium flux, Fluo-4, ACh EC20; at 30 µM; hits give low values

Muscarinic acetylcholine receptor M1 (Homo sapiens), sequence (P11229 whole entry, looked up): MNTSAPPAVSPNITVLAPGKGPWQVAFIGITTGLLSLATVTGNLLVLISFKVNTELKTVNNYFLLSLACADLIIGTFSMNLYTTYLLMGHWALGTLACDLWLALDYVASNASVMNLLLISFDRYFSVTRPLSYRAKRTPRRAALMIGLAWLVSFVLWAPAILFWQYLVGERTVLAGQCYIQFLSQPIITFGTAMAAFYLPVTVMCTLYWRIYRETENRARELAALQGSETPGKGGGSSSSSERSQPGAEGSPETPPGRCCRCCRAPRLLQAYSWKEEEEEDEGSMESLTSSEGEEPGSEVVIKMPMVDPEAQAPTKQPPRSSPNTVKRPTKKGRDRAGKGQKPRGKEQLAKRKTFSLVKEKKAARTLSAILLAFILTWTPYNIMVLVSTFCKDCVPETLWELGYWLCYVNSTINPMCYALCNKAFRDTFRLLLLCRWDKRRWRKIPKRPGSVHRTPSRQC

| SMILES | response, % of max ACh |
| --- | --- |
| O=C(c1ccc(F)c(F)c1)N1CCN2C(=O)c3ccccc3C12c1ccccc1 (stereo not given) | 87.2% (inactive) |
| O=C(c1ccc(F)cc1)N1CCN2C(=O)c3ccccc3C12c1ccccc1 (stereo not given) | 83.6% (inactive) |

The remaining lines, values ahead:

| response, % of max ACh | SMILES |
| --- | --- |
| 79.9% (inactive) | O=C(c1cc(F)cc(F)c1)N1CCN2C(=O)c3ccccc3C12c1ccc(Cl)cc1 (stereo not given) |
| 66.4% (inactive) | O=C(c1ccc(F)c(F)c1)N1CCN2C(=O)c3ccccc3[C@@]12c1ccc(Cl)cc1 |
| 80.5% (inactive) | O=C(c1ccc(F)c(F)c1)N1CCN2C(=O)c3ccccc3C12c1ccc(Cl)cc1 (stereo not given) |
